Data on two compounds can be found in US9238688B2 (priority 2010, dated 2016).

Molecules are shown by their SMILES.

Experiment [1] concerns hyaluronic acid synthase gene HAS3. Nature of the experiment: Expression of hyaluronic acid synthase gene HAS3, keratinocyte monolayer culture, real-time PCR. The format is cell-based. Conditions: human epidermal keratinocytes; final retinol concentration 10^−6 M or 10^−5 M; 6, 24 or 48 hours; Experimental Example 1. How it is done:
(§1) Human epidermal keratinocytes (Cell Application Inc.) were seeded in a 24-well plate containing a human epidermal keratinocytes growth medium (Cell Application Inc.) so that the number of cells contained in a well was 1.5×10^5, and were cultured under the condition of 5% CO2-95% air and at 37° C. for about two days until the cells reached confluence.
(§2) Meanwhile, each tested substance was dissolved in a small amount of dimethylformamide and added to the medium, and the concentration of dimethylformamide in all experiments was adjusted to 0.1 wt %.
(§3) After culturing for a given time period, the keratinocytes were recovered and RNA was extracted therefrom. Then, the gene expression of hyaluronic acid synthases HAS2 and HAS3 were assessed by real-time PCR using the following primer pairs (Takara Bio Inc.): […]
For orientation: Quantitative PCR measures a nucleic acid by following its amplification.

Experiment [2] concerns hyaluronic acid synthase gene HAS2. Nature of the experiment: Expression of hyaluronic acid synthase gene HAS2, keratinocyte monolayer culture, real-time PCR. It is filed as cell-based. As to conditions: human epidermal keratinocytes; final retinol concentration 10^−6 M or 10^−5 M; 6, 24 or 48 hours; Experimental Example 1. The protocol:
as §1, §2, §3

For the compound `CCCCCCCCCCCCCCCC(=O)OC/C=C(C)/C=C/C=C(C)/C=C/C1=C(C)CCCC1(C)C` [palmitic acid retinol ester], the “level of HAS3 gene expression (ratio to PPIA, control after 6 hours = 1)” value in experiment [1] was “lower levels of gene expression as compared to the retinol-modified collagen”. The “level of HAS2 gene expression (ratio to PPIA, control after 6 hours = 1)” value in experiment [2] was “lower levels of gene expression as compared to the retinol-modified collagen”.
`CC(=O)OC/C=C(C)/C=C/C=C(C)/C=C/C1=C(C)CCCC1(C)C` [acetic acid retinol ester]: the “level of HAS3 gene expression (ratio to PPIA, control after 6 hours = 1)” value in experiment [1] is given as “lower levels of gene expression as compared to the retinol-modified collagen”. Also, the “level of HAS2 gene expression (ratio to PPIA, control after 6 hours = 1)” value in experiment [2] was “lower levels of gene expression as compared to the retinol-modified collagen”.
